What all share (test): biochemical
Common to all, as to assay type: binding

Assay [1] concerns the target T1, panel of 442 kinases (Homo sapiens, UniProt O15075).
T1 construct: purchased Ambit Biosciences (scanMAXX KINOMEscan)
The conditions noted are these: DCAMKL1; for remaining activity at 1 µM: read-out: % of control at 1 µM.

Assay [2] deals with T2, panel of 442 kinases (Homo sapiens, UniProt O15111).
T2 construct: purchased Ambit Biosciences (scanMAXX KINOMEscan)
T2 sequence (O15111 1-745): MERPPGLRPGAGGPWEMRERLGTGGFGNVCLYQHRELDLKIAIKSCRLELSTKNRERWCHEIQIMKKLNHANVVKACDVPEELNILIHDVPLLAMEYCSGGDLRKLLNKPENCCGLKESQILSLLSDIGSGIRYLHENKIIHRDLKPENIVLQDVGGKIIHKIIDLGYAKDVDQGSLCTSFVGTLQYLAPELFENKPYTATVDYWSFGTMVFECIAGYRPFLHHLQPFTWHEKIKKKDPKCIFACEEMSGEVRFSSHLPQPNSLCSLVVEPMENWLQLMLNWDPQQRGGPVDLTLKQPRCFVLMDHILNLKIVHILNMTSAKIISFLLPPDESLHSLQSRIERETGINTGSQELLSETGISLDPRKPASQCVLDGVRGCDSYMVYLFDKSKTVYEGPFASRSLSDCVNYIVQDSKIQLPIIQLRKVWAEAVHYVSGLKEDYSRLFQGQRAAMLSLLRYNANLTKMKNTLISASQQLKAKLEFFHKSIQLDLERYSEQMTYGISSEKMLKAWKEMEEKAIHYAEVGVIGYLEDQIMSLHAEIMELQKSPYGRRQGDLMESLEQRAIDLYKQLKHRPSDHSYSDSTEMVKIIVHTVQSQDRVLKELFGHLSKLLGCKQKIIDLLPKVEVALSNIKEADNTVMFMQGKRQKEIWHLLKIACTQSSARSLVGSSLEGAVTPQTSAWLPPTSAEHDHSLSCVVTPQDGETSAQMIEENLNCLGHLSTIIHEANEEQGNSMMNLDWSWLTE
The conditions noted are these: kinase IKK-alpha; for remaining activity at 1 µM: read-out: % of control at 1 µM.

The target of assay [3] is T3, panel of 442 kinases (Homo sapiens, UniProt P0C1S8).
T3 construct: purchased Ambit Biosciences (scanMAXX KINOMEscan)
The conditions noted are these: kinase WEE2; for remaining activity at 1 µM: read-out: WEE2 (% of control at 1 µM).

For assay [4], the target named is T4, panel of 442 kinases (Homo sapiens, UniProt P10721, L576P).
T4 construct: purchased Ambit Biosciences (scanMAXX KINOMEscan)
The settings on record: kinase KIT(L576P); for remaining activity at 1 µM: read-out: % of control at 1 µM.

Assay [5] addresses T5, panel of 442 kinases (Homo sapiens, UniProt P15056, V600E).
T5 construct: purchased Ambit Biosciences (scanMAXX KINOMEscan)
The settings on record: BRAF(V600E); for remaining activity at 1 µM: read-out: % of control at 1 µM.

Assay [6] has as its target T6, panel of 442 kinases (Homo sapiens, UniProt P21127).
T6 construct: purchased Ambit Biosciences (scanMAXX KINOMEscan)
The conditions noted are these: CDC2L1; for remaining activity at 1 µM: read-out: % of control at 1 µM.

Assay [7] addresses T7, panel of 442 kinases (Homo sapiens, UniProt P29376).
T7 construct: purchased Ambit Biosciences (scanMAXX KINOMEscan)
The conditions noted are these: kinase LTK; for remaining activity at 1 µM: read-out: % of control at 1 µM.

Assay [8] concerns the target T8, panel of 442 kinases (Homo sapiens, UniProt Q56UN5).
T8 construct: purchased Ambit Biosciences (scanMAXX KINOMEscan)
T8 sequence (Q56UN5 1-1328): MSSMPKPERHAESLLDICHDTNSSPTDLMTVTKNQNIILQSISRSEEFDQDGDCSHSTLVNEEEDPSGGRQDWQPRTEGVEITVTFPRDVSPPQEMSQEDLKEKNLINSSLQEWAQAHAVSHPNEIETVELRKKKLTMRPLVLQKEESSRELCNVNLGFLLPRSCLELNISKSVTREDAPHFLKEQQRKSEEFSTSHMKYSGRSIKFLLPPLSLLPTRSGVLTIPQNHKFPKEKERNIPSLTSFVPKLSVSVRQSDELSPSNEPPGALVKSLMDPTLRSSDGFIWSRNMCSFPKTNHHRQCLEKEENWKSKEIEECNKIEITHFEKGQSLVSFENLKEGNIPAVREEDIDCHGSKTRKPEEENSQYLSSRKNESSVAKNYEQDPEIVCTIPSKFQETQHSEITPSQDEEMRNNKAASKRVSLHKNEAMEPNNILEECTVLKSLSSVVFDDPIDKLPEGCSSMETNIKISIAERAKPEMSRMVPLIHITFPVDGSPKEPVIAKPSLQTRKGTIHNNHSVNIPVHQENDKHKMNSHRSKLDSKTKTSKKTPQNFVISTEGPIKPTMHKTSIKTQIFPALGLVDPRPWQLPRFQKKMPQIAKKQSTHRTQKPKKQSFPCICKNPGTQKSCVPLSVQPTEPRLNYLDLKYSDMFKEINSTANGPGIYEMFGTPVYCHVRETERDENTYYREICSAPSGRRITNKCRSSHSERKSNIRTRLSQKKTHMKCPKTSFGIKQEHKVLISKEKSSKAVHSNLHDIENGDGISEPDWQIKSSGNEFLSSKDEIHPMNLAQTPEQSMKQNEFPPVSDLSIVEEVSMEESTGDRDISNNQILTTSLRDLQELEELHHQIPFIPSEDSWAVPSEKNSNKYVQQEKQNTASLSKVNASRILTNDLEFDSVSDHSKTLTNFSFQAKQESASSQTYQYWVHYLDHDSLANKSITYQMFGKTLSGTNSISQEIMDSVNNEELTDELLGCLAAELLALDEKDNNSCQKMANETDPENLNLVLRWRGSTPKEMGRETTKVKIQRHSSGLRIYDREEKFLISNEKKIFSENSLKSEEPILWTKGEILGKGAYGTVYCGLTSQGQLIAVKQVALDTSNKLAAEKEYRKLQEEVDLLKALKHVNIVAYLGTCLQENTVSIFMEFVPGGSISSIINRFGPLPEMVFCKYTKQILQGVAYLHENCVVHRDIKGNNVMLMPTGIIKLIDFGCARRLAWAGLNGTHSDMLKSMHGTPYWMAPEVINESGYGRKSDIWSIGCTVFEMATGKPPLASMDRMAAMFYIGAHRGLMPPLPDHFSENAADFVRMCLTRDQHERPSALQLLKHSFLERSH
The conditions noted are these: kinase YSK4; for remaining activity at 1 µM: read-out: YSK4 (% of control at 1 µM).

The target in assay [9] is T9, panel of 442 kinases (Homo sapiens, UniProt Q6DT37).
T9 construct: purchased Ambit Biosciences (scanMAXX KINOMEscan)
The settings on record: DMPK2; for remaining activity at 1 µM: read-out: % of control at 1 µM.

In assay [10] the target is T10, panel of 442 kinases (Homo sapiens, UniProt Q8N5S9).
T10 construct: purchased Ambit Biosciences (scanMAXX KINOMEscan)
The conditions noted are these: CAMKK1; for remaining activity at 1 µM: read-out: % of control at 1 µM.

Assay [11] has as its target T11, panel of 442 kinases (Homo sapiens, UniProt Q9UM73).
T11 construct: purchased Ambit Biosciences (scanMAXX KINOMEscan)
The conditions noted are these: ALK; for remaining activity at 1 µM: read-out: % of control at 1 µM.

Setting [12] is: 10 µM, read-out: % of control at 10 µM.

Molecules are shown by their SMILES.

T7 sequence (P29376 17-864): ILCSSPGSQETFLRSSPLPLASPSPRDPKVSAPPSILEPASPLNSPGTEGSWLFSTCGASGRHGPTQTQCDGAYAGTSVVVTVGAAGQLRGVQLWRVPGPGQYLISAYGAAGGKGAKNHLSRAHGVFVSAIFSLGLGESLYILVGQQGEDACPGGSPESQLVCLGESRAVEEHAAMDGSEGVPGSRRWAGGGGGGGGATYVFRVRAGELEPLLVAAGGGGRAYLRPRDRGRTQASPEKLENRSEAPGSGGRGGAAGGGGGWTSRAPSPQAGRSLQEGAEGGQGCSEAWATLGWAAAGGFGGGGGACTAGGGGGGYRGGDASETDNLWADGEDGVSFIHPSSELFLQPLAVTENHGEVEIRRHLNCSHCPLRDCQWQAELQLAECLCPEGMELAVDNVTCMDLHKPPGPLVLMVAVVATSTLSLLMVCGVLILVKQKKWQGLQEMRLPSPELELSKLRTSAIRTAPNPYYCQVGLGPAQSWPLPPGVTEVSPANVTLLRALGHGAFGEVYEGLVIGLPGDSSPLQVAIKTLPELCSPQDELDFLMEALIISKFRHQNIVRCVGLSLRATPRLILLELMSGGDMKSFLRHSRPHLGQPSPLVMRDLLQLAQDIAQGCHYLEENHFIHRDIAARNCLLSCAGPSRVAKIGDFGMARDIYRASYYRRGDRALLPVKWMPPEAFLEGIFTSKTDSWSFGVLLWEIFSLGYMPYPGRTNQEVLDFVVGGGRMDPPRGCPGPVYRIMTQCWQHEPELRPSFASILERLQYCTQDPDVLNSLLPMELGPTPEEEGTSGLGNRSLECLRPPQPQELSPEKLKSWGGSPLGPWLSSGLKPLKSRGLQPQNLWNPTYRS
T10 sequence (Q8N5S9 whole entry): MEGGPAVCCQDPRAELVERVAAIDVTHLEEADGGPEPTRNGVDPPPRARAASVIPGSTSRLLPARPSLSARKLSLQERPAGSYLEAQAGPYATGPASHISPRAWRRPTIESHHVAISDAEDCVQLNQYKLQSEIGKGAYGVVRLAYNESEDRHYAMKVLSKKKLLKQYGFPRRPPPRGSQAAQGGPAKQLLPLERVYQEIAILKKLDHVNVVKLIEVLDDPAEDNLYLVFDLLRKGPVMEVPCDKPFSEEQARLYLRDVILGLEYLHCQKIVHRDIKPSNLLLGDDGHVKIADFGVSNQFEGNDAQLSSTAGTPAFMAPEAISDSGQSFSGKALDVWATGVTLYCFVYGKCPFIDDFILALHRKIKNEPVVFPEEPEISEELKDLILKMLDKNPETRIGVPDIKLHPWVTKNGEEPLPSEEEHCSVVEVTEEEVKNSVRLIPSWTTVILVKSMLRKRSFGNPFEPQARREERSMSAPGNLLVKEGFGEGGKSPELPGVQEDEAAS
T3 sequence (P0C1S8 whole entry): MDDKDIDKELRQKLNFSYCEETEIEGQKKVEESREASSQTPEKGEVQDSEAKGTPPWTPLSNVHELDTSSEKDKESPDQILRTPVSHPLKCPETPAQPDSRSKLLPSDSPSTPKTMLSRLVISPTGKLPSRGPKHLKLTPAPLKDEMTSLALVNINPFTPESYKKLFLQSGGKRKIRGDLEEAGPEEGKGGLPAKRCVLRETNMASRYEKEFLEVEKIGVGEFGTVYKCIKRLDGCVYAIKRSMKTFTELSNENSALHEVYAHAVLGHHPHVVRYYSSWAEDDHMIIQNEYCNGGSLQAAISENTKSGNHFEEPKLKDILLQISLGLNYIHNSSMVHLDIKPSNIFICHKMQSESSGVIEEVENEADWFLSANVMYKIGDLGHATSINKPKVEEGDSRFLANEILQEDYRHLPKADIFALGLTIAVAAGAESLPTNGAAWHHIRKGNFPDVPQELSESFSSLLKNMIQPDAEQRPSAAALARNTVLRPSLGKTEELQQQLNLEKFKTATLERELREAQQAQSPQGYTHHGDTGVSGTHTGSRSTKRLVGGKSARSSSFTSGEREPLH
T11 sequence (Q9UM73 19-1620): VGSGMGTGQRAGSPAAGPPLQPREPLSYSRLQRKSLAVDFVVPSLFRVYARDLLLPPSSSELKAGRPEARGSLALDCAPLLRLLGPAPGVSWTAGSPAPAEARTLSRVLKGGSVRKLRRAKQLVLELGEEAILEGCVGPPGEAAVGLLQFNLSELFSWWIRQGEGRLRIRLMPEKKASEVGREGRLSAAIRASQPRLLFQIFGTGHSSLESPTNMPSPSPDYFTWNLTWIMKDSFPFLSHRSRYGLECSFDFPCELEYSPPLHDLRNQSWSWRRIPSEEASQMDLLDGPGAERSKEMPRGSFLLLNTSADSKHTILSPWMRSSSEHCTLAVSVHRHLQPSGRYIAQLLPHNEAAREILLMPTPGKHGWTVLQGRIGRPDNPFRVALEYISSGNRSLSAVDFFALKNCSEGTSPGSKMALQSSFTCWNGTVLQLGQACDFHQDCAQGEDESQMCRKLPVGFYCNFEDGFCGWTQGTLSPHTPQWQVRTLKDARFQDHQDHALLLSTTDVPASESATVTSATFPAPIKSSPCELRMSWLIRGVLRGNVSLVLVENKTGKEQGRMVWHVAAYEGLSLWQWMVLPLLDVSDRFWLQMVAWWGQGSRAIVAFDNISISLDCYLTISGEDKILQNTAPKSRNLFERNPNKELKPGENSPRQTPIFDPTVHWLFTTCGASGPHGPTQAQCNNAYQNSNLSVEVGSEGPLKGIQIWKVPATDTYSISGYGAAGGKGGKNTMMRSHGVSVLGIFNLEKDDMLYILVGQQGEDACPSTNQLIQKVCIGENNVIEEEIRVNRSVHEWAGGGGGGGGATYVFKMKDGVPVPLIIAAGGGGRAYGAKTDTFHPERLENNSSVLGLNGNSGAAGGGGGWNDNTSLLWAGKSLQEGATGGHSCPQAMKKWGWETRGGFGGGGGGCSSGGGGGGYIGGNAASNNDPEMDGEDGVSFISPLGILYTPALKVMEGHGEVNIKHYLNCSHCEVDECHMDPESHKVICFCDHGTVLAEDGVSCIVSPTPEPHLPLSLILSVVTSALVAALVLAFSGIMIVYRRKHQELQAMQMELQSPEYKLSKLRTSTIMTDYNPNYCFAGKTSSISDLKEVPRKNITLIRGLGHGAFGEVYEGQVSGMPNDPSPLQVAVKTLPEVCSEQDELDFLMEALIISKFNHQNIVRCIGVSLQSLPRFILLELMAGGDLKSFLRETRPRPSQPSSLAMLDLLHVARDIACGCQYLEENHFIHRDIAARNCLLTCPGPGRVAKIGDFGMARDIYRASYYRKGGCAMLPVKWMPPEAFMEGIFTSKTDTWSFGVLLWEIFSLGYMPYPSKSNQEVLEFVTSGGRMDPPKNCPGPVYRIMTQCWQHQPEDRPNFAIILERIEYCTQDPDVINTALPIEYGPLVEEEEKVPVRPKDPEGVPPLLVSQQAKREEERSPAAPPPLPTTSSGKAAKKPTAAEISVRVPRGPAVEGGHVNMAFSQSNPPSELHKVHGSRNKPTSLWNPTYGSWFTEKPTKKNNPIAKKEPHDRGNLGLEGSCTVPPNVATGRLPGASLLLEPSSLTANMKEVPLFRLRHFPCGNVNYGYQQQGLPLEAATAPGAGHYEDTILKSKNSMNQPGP
T6 sequence (P21127 whole entry): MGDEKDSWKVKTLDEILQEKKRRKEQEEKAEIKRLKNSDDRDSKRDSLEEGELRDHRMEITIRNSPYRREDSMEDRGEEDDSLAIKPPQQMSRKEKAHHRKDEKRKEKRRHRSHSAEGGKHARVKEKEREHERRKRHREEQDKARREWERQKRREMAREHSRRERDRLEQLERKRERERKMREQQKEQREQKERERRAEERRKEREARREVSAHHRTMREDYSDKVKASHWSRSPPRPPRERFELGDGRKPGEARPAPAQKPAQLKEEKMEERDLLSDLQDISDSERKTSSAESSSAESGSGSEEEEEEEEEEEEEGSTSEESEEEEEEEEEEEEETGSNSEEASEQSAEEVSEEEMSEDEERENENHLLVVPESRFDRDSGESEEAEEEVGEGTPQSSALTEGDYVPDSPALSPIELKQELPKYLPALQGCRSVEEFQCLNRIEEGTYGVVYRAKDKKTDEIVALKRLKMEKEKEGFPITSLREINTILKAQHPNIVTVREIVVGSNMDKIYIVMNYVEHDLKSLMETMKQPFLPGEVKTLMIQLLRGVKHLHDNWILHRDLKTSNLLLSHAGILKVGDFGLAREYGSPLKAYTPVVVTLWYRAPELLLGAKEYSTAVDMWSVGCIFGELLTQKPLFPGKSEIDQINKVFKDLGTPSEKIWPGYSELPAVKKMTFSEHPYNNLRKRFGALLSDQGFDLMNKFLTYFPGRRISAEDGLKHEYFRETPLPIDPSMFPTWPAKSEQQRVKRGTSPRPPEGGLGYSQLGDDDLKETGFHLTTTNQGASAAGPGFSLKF
T1 sequence (O15075 whole entry): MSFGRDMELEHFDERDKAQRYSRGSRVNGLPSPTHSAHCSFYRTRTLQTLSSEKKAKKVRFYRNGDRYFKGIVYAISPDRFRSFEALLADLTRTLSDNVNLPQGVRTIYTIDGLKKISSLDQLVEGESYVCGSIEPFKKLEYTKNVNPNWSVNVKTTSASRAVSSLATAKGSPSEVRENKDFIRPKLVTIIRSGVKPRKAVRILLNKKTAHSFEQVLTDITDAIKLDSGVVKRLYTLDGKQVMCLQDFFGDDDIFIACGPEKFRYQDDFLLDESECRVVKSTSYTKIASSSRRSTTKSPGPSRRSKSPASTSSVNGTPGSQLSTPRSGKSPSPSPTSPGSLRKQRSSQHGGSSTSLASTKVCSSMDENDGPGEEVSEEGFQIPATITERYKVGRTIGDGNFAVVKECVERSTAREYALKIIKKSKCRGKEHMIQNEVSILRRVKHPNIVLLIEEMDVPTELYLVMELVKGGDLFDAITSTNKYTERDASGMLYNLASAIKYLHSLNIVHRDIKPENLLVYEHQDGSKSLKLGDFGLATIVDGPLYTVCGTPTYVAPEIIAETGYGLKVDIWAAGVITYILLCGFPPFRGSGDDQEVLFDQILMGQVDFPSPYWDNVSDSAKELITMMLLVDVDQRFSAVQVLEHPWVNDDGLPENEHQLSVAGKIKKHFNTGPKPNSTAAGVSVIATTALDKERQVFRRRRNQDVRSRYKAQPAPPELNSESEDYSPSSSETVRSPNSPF

For `Nc1cc(C(F)(F)F)c(-c2cc(N3CCOCC3)nc(N3CCOCC3)n2)cn1` [Buparlisib], the remaining activity at 1 µM was determined as 100% in assay [1]; 59% in assay [2]; 100% in [3]; 80% in assay [4]; 74% in assay [5]; 85% in [6]. Further, the remaining activity at 1 µM in assay [7] was found to be 99%; in [8], 72%; in assay [9], 100%; in assay [10], 100%; in [11], 100%. In addition, the remaining activity at 10 µM in [1] (setting [12]) is 92%; in [2] (setting [12]), 59%; in assay [3] (10 µM, read-out: WEE2 (% of control at 10 µM)) it was 100%; in assay [4] (setting [12]) it was 24%; in [5] (setting [12]) it was 44%; in assay [6] (setting [12]) it was 92%. Besides, the remaining activity at 10 µM in assay [7] (setting [12]) came out at 100%; in assay [8] (10 µM, read-out: YSK4 (% of control at 10 µM)) it was 78%; in assay [9] (setting [12]) it was 100%; in assay [10] (setting [12]) it was 100%; in assay [11] (setting [12]), 100%.
As for `Cn1c(=O)n(-c2ccc(C(C)(C)C#N)cc2)c2c3cc(-c4cnc5ccccc5c4)ccc3ncc21` [Dactolisib, 2-methyl-2-[4-(3-methyl-2-oxo-8-quinolin-3-yl-2,3-dihydroimidazo[4,5-c]quinolin-1-yl)-phenyl] propionitrile], the remaining activity at 1 µM came to 100% in [1]; 63% in assay [2]; 100% in assay [3]; 59% in assay [4]; 82% in assay [5]; 100% in [6]. Moreover, the remaining activity at 1 µM in assay [7] came out at 23%; in [8] it was 28%; in [9], 81%; in assay [10], 79%; in [11], 72%.
Regarding `FC(F)c1nc2ccccc2n1-c1nc(N2CCOCC2)nc(N2CCOCC2)n1` [ZSTK474, 2-(difluoromethyl)-1-[4,6-di(4-morpholinyl)-1,3,5-triazin-2-yl]-1H-benzimidazole], the remaining activity at 1 µM in assay [1] was determined as 97%; in assay [2], 73%; in [3] it was 96%; in assay [4], 100%; in assay [5], 56%; in assay [6], 88%. Besides, the remaining activity at 1 µM in assay [7] was 72%; in [8] it was 100%; in assay [9], 88%; in [10], 100%; in assay [11], 93%.
In the case of `COc1ncc(-c2ccc3nccc(-c4ccnnc4)c3c2)cc1NS(=O)(=O)c1ccc(F)cc1F` [Omipalisib], the remaining activity at 1 µM was 92% in assay [1]; 100% in assay [2]; 84% in assay [3]; 90% in assay [4]; 96% in assay [6]; 88% in assay [7]. Also, the remaining activity at 1 µM in [8] is 77%; in [9] it was 100%; in [10] it was 100%; in assay [11], 100%.

(Values after PMC5564600 (Oncotarget, 2017).)
